Experimental data as given in patent publication US20220298510A1, “COMPOUNDS AND METHODS FOR INHIBITING CANCERS VIA REST INHIBITION” (Icahn School of Medicine at Mount Sinai, priority 2019, published 2022).

Columns and labels:
[1] = tested on: CHLA-90 xenografts; assay: CHLA-90 xenografts in immunocompromised mice; type: in vivo; conditions: 300 mg/kg of body weight, 25 days
Description: (§1) GAPDH used as a loading control. […] Percent confluence normalized to DMSO for each condition and plotted at day 12. Values normalized mean n±SD (n=3). Statistical significance assessed using student's unpaired t-test with each cell line compared to DMSO (* indicates p<0.05). […] Percent AV positive cells plotted, values are mean n±SD (n=3). Statistical significance assessed using student's unpaired t-test with each cell line compared to DMSO (* indicates p<0.05). (d) Tumor volume measurements of CHLA-90 cells subcutaneously injected into immunocompromised mice. Mice were treated with vehicle or UNC1999 at 300 mg/kg of body weight for 25 days, values mean n±SEM (n=9). Statistical significance assessed using student's unpaired t-test compared to vehicle (* indicates p<0.001). (e) Tumor weight measurement from xenografts collected in (d), values mean n±SEM (n=9). Images of excised tumors underneath (* indicates p<0.001). (f) Immunoblots for H3K27me3 from acid extracted histones derived from vehicle and treated xenografts. H4 and histones used as loading controls.

[2] = tested on: ATRX IFF NB cells; assay: Proliferation (Incucyte, percent confluence normalized to DMSO) of ATRX IFF NB cells; type: cell-based, human; conditions: proliferation IC50 curves, day 12 (FIG. 11a)
Description: as §1, with “(e) Tumor weight measurement from xenografts collected in (d), values mean n±SEM (n=9). Images of excised tumors underneath (* indicates p<0.001). (f) Immunoblots for H3K27me3 from acid extracted histones derived from vehicle and treated xenografts. H4 and histones used as loading controls.” left out
Proliferation evaluated using the […] […] IC50 for each cell line calculated in Prism. […] Statistical significance assessed using student's unpaired t-test with each cell line compared to DMSO (* indicates p<0.05). […] Proliferation assessed in the same manner as (a). Statistical significance assessed using student's unpaired t-test with each cell line compared to DMSO (* indicates p<0.05). […] AV staining assessed in the same manner as (b). […] Proliferation assessed in the same manner as (a). […] AV staining assessed in the same manner as (b).
GAPDH used as a loading control. […] Proliferation evaluated using the Incucyte™ Life-Cell Imaging System. […]

Structure (SMILES) | tumor growth and volume compared to vehicle-treated tumors [1] | sensitivity of ATRX IFF NB cells compared to other NB subtypes [2]
CCCc1cc(C)[nH]c(=O)c1CNC(=O)c1cc(-c2ccc(N3CCN(C(C)C)CC3)nc2)cc2c1cnn2C(C)C [UNC1999] | significant reduction | –
CCN(c1cc(-c2ccc(CN3CCOCC3)cc2)cc(C(=O)NCc2c(C)cc(C)[nH]c2=O)c1C)C1CCOCC1 [EPZ-6438, Tazemetostat] | – | 5-10 fold
